Measurements published in US20260258084A1, “New Peptides as Selective IL-23 Receptor Antagonists” (Sanofi, priority 2022, published 2026).
pIC50: −log10 of the molar value. ≈ marks a conversion by molar mass, not a printed value. Read-outs that look alike come from different tables or passages of the source. Blank lines part the entries; values can stand above or below the compound they belong to. Starred links: 1 amine or outer side, 2 acyl side, 3 side chain; linkers in the order of their positions; H or OH if unused. Positions of bridges follow the written chain, without caps; N, C: chain ends. Non-standard residues stand in square brackets, D forms with d. Residues, ends and D or L forms follow the SMILES beside them. *: point of attachment. Trp(7-Me) = Cc1cccc2c(C[C@H](N)C(=O)O)c[nH]c12; X1 = O=C(CCCCN[*:3])N[C@@H](CS[*:2])C(=O)[*:1]; αMeLys(Me2) = CN(C)CCCC[C@](C)(N)C(=O)O; X2 = CN(C)[C@@H](CCCCN[*:1])C(=O)[*:2]; 2Nal = N[C@@H](Cc1ccc2ccccc2c1)C(=O)O; NMe5Ava = CN(CCCCC(=O)[*:2])[*:1]; 3Pal = N[C@@H](Cc1cccnc1)C(=O)O; αMeL = CC(C)C[C@](C)(N)C(=O)O; Me2NCH2CH2 = CN(C)CC*; Aib = CC(C)(N)C(=O)O; Ava = NCCCCC(=O)O; Sar = CNCC(=O)O

Assays:
[1] = test system: IL-23 induced STAT3 signaling in HEK-Blue™ IL-23 cells; experiment: IL-23 induced STAT3 signaling in HEK-Blue IL-23 cells (SEAP reporter); format: cell-based; conditions: human IL23 0.25 ng/ml, read-out: pSTAT3
Text: HEK-Blue™ IL-23 cells (Invivogen) are designed for the detection of bioactive human (hIL-23) and murine IL-23 (mIL-23) by monitoring the activation of the STAT3 pathway. Binding of IL-23 to its receptor on the surface of HEK-Blue™ IL-23 cells triggers a signalling cascade leading to the activation of STAT3 and the subsequent production of secreted embryonic alkaline phosphatase (SEAP). This can be readily assessed using QUANTI-Blue™ Solution, a SEAP detection reagent.
HEK-Blue™ IL-23 cells were cultured as described by Invivogen.
On the first day of assay 10 μL of the HEK-Blue IL23 cell suspension (final concentration: 10,000 cells/well) and 10 μl of serially diluted peptides solutions were dispensed into a 384-well assay plate. After pre-incubation of the reaction mixtures at 37° C./5% CO2/95% humidity for 60 minutes, 10 μl of the human IL23 cytokine (final concentration: 0.25 ng/ml) was added to each well for the STAT3 signalling activation. The plate was incubated overnight at 37° C./5% CO2/95% humidity.
On the second day 20 μl per well of Quanti-Blue detection solution (prepared according to the manufacture instruction) was dispensed into a new 384-well plate and followed by the transfer of 5 μl supernatant of the overnight incubated cell/sample mixtures. After incubation of 45 min at room temperature signals were measured with PHERAstar (BMG) at OD 620-655 nm. Dose response data were fitted with XLfit.

Pepsin = test system: T1, Pepsin; experiment: Protease stability in simulated gastric fluid (Pepsin-SGF, FaSSGF); format: in vitro ADME; conditions: simulated gastric fluid with pepsin (Pepsin-SGF), 60 min, 1 μM peptide, 37° C., read-out: FaSSGF 60 (min), remaining percent of peptide
T1 construct: purchased Merck Millipore
Description: (§1) Studies were carried out in simulated intestinal fluid (SIF) and simulated gastric fluid (SGF) to evaluate gastric stability of the peptide compounds disclosed herein.
For clarification the term “Pepsin-SGF” refers to a solution of simulated gastric fluid containing pepsin whereas “SGF media” refers to a solution of simulated gastric fluid without pepsin. Pepsin-SGF was prepared by dissolving 320 mg Pepsin (Merck Millipore) in 100 mL SGF media concentrate (ProSense).
(§2) Peptides were first dissolved at 1 mM stock concentration in 0.01 HCl (+/−10% of DMSO) and were than diluted further with water to a stock concentration of 20 μM. Final peptide concentration in the incubation was 1 μM.
(§3) To 76 μL of the Pepsin-SGF buffer, 4 μL of the 20 μM peptide stock solution was added and incubated at 37° C. At each timepoint (0, 60, 120 and 240 minutes) the reaction was quenched with addition of 80 μL Ethanol (0.1% HCOOH). The samples were centrifuged for 20 minutes and an aliquot of the supernatant 100 μL were transferred to a LoBind-MTP plate and analyzed by LCMS/MS. The peak area response was calculated at each time point for each test compound. As internal reference, the peak area response of the same test compound at TO was calculated. The percent remaining at each timepoint was calculated based on the peak area response ratio of the test compound at TO. Time 0 was set to 100%, and all later timepoints were calculated relative to time 0.

[2] = Solubility testing of peptides at different pH; format: physicochemical; conditions: target concentration 1 mg/ml, 2 hours agitation
Description: Prior to the solubility measurement of a synthesized peptide batch, its purity was determined through UPLC/MS (methods B-G).
For solubility testing the target concentration was 1 mg pure compound/ml. Therefore, solutions from solid samples were prepared in a buffer system at a concentration of 1 mg/mL compound. The solid samples were obtained by drying down aliquots of a dimethyl sulfoxide stock solution using a Thermo Speedvac vacuum centrifuge. The dry down time was 3 hours. • Solubility buffer system A) 50 mM HCl pH 1.2 • Solubility buffer system B) 50 mM phosphate buffer pH 6.5 • Solubility buffer system C) 50 mM phosphate buffer pH 7.4 • Solubility buffer system D) 50 mM phosphate buffer pH 9.0
UPLC-UV (Method A) was performed after 2 hours of gentle agitation from the filtered (0.45 μm filter plates) solutions, which was obtained by 10 mins of centrifugation forced filtration at 1500 RCF (relative centrifugal acceleration).
The solubility was determined by the comparison of the UV peak area of 2 μL-injections of a buffered sample diluted 1:5 with a standard curve of a dimethyl sulfoxide reference sample of the diluted in dimethyl sulfoxide with known concentration. The different extinction coefficients were taken into account for the calculation.

[3] = Chemical stability assessment of peptides (relative purity loss); format: physicochemical; conditions: 24 hours at 37° C.; for Chemical stability (relative purity loss) Buffer pH 1.2: 50 mM HCl pH 1.2 + acetonitrile (1:1); for Chemical stability (relative purity loss) Buffer pH 6.5: 50 mM phosphate buffer pH 6.5 + acetonitrile (1:1); for Chemical stability (relative purity loss) Buffer pH 7.4: 50 mM phosphate buffer pH 7.4 + acetonitrile (1:1)
Description: Purity of a peptide batch was determined through UPLC/MS (Methods B-G) prior to chemical stability measurement. The target concentration was 1 mg/ml pure compound. Solutions from solid samples were prepared in the following buffer systems with a concentration of 1 mg/ml compound based on the previously determined % purity: • Solubility buffer system A) 50 mM HCl pH 1.2+Acetonitrile (1:1) • Solubility buffer system B) 50 mM phosphate buffer pH 6.5+Acetonitrile (1:1) • Solubility buffer system C) 50 mM phosphate buffer pH 7.4+Acetonitrile (1:1)
Prepared solutions were stored for 24 hours at 2° C. and 37° C. After this time course, the samples were centrifuged for 15 min at 2500 RCF to create a 1:5 dilution of the supernatant. Then 2 μl of the dilution were analysed with UHPLC-UV.
The chemical stability was rated through the relative loss of purity calculated by the equation:
[(purity after 0 hours at 37° C.)−(purity after 24 hours at 37° C.)]/(purity after 0 hours at 37° C.)]*100%
The purity is calculated as [(peak area peptide)/(total peak area)]*100%.

Pancreatin = experiment: Protease stability in simulated intestinal fluid (Pancreatin-SIF, FaSSIF); format: in vitro ADME; conditions: 1 μM peptide, 37° C.; for remaining at 1 h, 1 µM: 60 min, read-out: FaSSIF 60 (min), remaining percent of peptide; for remaining at 2 h, 1 µM: 120 min, read-out: FaSSIF 120 (min), remaining percent of peptide; for remaining at 4 h, 1 µM: 240 min, read-out: FaSSIF 240 (min), remaining percent of peptide
Description: as §1
Similarly, the term “Pancreatin-SIF” refers to a solution of simulated intestinal fluid containing pancreatin whereas “SIF-media” refers to a solution of simulated intestinal fluid without pancreatin.
Pancreatin-SIF was prepared by dissolving 1 mg Pancreatin (MP Biomedicals) in 10 mL SIF media concentrate (ProSense).
as §2
as §3, with “µM” for “μM”

[4] = 50 mM HCl buffer, 50 mM HCl pH 1.2, read-out: Solubility Buffer pH 1.2
[5] = 50 mM phosphate buffer pH 6.5, read-out: Solubility Buffer pH 6.5
[6] = 50 mM phosphate buffer pH 7.4, read-out: Solubility Buffer pH 7.4
[7] = 50 mM phosphate buffer pH 9.0, read-out: Solubility Buffer pH 9.0

- remaining at 1 h, 1 µM (Pepsin): 92%
- solubility at 2 h [2, 4]: ≥ 1070 µg/mL
- solubility at 2 h [2, 5]: ≥ 1030 µg/mL
- solubility at 2 h [2, 6]: ≥ 1060 µg/mL
- solubility at 2 h [2, 7]: ≥ 1140 µg/mL
- Chemical stability (relative purity loss) Buffer pH 1.2 [3]: 10.1%
- Chemical stability (relative purity loss) Buffer pH 6.5 [3]: 1.3%
- Chemical stability (relative purity loss) Buffer pH 7.4 [3]: 1.7%
- remaining at 1 h, 1 µM (Pancreatin): 91%
- remaining at 2 h, 1 µM (Pancreatin): 92%
- remaining at 4 h, 1 µM (Pancreatin): 92%
SMILES: CC(=O)NCCCC[C@@H]1NC(=O)[C@H](Cc2c[nH]c3c(C)cccc23)NC(=O)[C@H]([C@@H](C)O)NC(=O)[C@H](CC(N)=O)NC(=O)[C@@H]2CSSC[C@H](NC1=O)C(=O)N[C@@H](Cc1ccc(OCCN(C)C)cc1)C(=O)N[C@H](Cc1ccc3ccccc3c1)C(=O)NC1(CCOCC1)C(=O)N[C@H](C(=O)N[C@@H](CC(N)=O)C(=O)N[C@@H](Cc1cccnc1)C(=O)N(C)CC(N)=O)CCC(=O)NCCCCC(=O)N2 [compound 35]
- pIC50 [1]: 9.47

- remaining at 1 h, 1 µM (Pepsin): 96%
- remaining at 1 h, 1 µM (Pancreatin): 90%
- remaining at 2 h, 1 µM (Pancreatin): 74%
- remaining at 4 h, 1 µM (Pancreatin): 62%
SMILES: CC(=O)NCCCC[C@@H]1NC(=O)[C@H](Cc2c[nH]c3c(C)cccc23)NC(=O)[C@@H](N(C)C)CCCCNC(=O)[C@@H]2CSSC[C@H](NC1=O)C(=O)N[C@@H](Cc1ccc(OCCN(C)C)cc1)C(=O)N[C@@H](Cc1ccc3ccccc3c1)C(=O)N[C@@](C)(CCCCN(C)C)C(=O)N[C@H](C(=O)N[C@@H](CC(N)=O)C(=O)N[C@@H](Cc1cccnc1)C(=O)N(C)CC(N)=O)CCC(=O)N(C)CCCCC(=O)N2 [compound 61] ([NMe5Ava]C[X2][Trp(7-Me)]K(Ac)CY(Me2NCH2CH2)[2Nal][αMeLys(Me2)]EN[3Pal][Sar]-NH2; disulfide 2-6; lactam N-10)
- pIC50 [1]: 8.36

- remaining at 1 h, 1 µM (Pepsin): 0%
- solubility at 2 h [2, 4]: 200 µg/mL (≈ 117 µM)
- solubility at 2 h [2, 5]: 160 µg/mL (≈ 93.8 µM)
- solubility at 2 h [2, 6]: 160 µg/mL (≈ 93.8 µM)
- solubility at 2 h [2, 7]: 150 µg/mL (≈ 87.9 µM)
- Chemical stability (relative purity loss) Buffer pH 1.2 [3]: 28.9%
- Chemical stability (relative purity loss) Buffer pH 6.5 [3]: 1.3%
- Chemical stability (relative purity loss) Buffer pH 7.4 [3]: 6.0%
- remaining at 1 h, 1 µM (Pancreatin): 84%
- remaining at 2 h, 1 µM (Pancreatin): 68%
- remaining at 4 h, 1 µM (Pancreatin): 47%
SMILES: COc1ccc(C[C@@H]2NC(=O)[C@@H]3CSSC[C@H](NC(=O)[C@@H](NC(C)=O)CCCCNC(=O)C[C@@H](C(=O)N[C@@H](CC(N)=O)C(=O)N[C@@H](CC(N)=O)C(N)=O)NC(=O)C(C)(C)NC(=O)[C@H](Cc4ccc5ccccc5c4)NC2=O)C(=O)N[C@@H](CC(N)=O)C(=O)N[C@@H]([C@@H](C)O)C(=O)N[C@@H](Cc2c[nH]c4ccccc24)C(=O)N[C@@H](CCC(N)=O)C(=O)N3)cc1 [compound 7] (Ac-KCNTWQCY(Me)[2Nal][Aib]DNN-NH2; lactam 1-11; disulfide 2-7)
- pIC50 [1]: 7.60

Further lines, the compound ahead of its results:

SMILES: CC(=O)NCCCC[C@@H]1NC(=O)[C@H](Cc2c[nH]c3c(C)cccc23)NC(=O)[C@H]([C@@H](C)O)NC(=O)[C@H](CC(N)=O)NC(=O)[C@@H]2CSSC[C@H](NC1=O)C(=O)N[C@@H](Cc1ccc(OCCN(C)C)cc1)C(=O)N[C@@H](Cc1ccc3ccccc3c1)C(=O)N[C@@](C)(CC(C)C)C(=O)N[C@H](C(=O)N[C@@H](CC(N)=O)C(=O)N[C@@H](Cc1cccnc1)C(=O)N(C)CC(N)=O)CCC(=O)NCCCCC(=O)N2 [compound 65] ([Ava]CNT[Trp(7-Me)]K(Ac)CY(Me2NCH2CH2)[2Nal][αMeL]EN[3Pal][Sar]-NH2; disulfide 2-7; lactam N-11)
- pIC50 [1]: 9.64
- remaining at 1 h, 1 µM (Pepsin): 86%
- solubility at 2 h [2, 4]: ≥ 980 µg/mL
- solubility at 2 h [2, 5]: ≥ 910 µg/mL
- solubility at 2 h [2, 6]: ≥ 960 µg/mL
- remaining at 1 h, 1 µM (Pancreatin): 96%
- remaining at 2 h, 1 µM (Pancreatin): 96%
- remaining at 4 h, 1 µM (Pancreatin): 92%

SMILES: CC(=O)N[C@H]1CCCCNC(=O)[C@@H]2CSSC[C@H](NC(=O)[C@H](CCC(N)=O)NC(=O)[C@H](Cc3c[nH]c4ccccc34)NC1=O)C(=O)N[C@@H](Cc1ccc(OCCN(C)C)cc1)C(=O)N[C@@H](Cc1ccc3ccccc3c1)C(=O)N[C@@](C)(CC(C)C)C(=O)N[C@H](C(=O)N[C@@H](CC(N)=O)C(=O)N[C@@H](CC(N)=O)C(N)=O)CCC(=O)NCCCCC(=O)N2 [compound 28] (Ac-KWQCY(Me2NCH2CH2)[2Nal][αMeL]ENN-NH2; linker 1-4-8 via X1)
- pIC50 [1]: 8.39
- remaining at 1 h, 1 µM (Pepsin): 83%
- remaining at 1 h, 1 µM (Pancreatin): 80%
- remaining at 2 h, 1 µM (Pancreatin): 68%
- remaining at 4 h, 1 µM (Pancreatin): 65%
